{
  "source": "paper PMC10979105",
  "about": "“A simple method to resolve rate constants when the binding mechanism obeys induced fit or conformational selection” (The Journal of Biological Chemistry, 2024)",
  "origin": "cited, not measured here",
  "test_system": "thrombin",
  "design": "method as in PMID 23467412",
  "settings": "thrombin versus zymogen prethrombin-2; cited from earlier work",
  "data": [
    {"smiles": "CC1CNc2c(cccc2S(=O)(=O)N[C@@H](CCCNC(=N)N)C(=O)N2CC[C@@H](C)C[C@@H]2C(=O)O)C1", "note": "(stereo partly shown) [argatroban]", "values": [
      {"measurement": "affinity for thrombin higher than for prethrombin-2", "result": 200, "unit": "fold"}
    ]}
  ]
}
